Data from patent publication US20200363414A1, “Neoantigen Identification for T-Cell Therapy” (Gritstone Oncology, Inc., priority 2018, published 2020).
Where no end group is shown, it is not given here.

Test system: neoantigen-reactive T-cells (patient PBMCs)
Assay: IFN-gamma ELISpot of in vitro expanded (IVS) NSCLC patient PBMCs
Type: cell-based, human
Conditions: IFN-gamma ELISpot after 14 day IVS culture of NSCLC patient PBMCs
Description: To focus the analysis on likely CD8 responses, the prioritized peptides were synthesized as 8-11 mer minimal epitopes (Methods), and then peripheral blood mononuclear cells (PBMCs) were cultured with the synthesized peptides in short in vitro stimulation (IVS) cultures to expand neoantigen-reactive T-cells (Supplementary Table 3). After two weeks the presence of antigen-specific T-cells was assessed using IFN-gamma ELISpot against the prioritized neoepitopes. In seven patients for whom sufficient PBMCs were available, separate experiments were also performed to fully or partially deconvolve the specific antigens recognized.
For each patient, predicted neoantigens were combined into 2 pools of 10 peptides each according to model ranking and any sequence homologies (homologous peptides were separated into different pools). Then, for each patient, the in vitro expanded PBMCs for the patient were stimulated with the 2 patient-specific neoantigen peptide pools in IFN-gamma ELISpot. Data in FIG. 15A are presented as spot forming units (SFU) per 105 plated cells with background (corresponding DMSO negative controls) subtracted.
Cells were seeded at 2×10^6 cells/well and fed every 2-3 days by replacing 2/3 of the culture media.
Detection of IFNγ-producing T-cells was performed by ELISpot assay^142. Briefly, PBMCs (ex vivo or post in vitro expansion) were harvested, washed in serum free RPMI (VWR International) and cultured in the presence of controls or cognate peptides in OpTmizer T-cell Expansion Basal Medium (ex vivo) or in ImmunoCult™-XF T-cell Expansion Medium (expanded cultures) in ELISpot Multiscreen plates (EMD Millipore) coated with anti-human IFNγ capture antibody (Mabtech, Cincinatti, Ohio, USA). Following 18 h incubation in a 5% CO2, 37° C., humidified incubator, cells were removed from the plate and membrane-bound IFNγ was detected using anti-human IFNγ detection antibody (Mabtech), Vectastain Avidin peroxidase complex (Vector Labs, Burlingame, Calif., USA) and AEC Substrate (BD Biosciences, San Jose, Calif., USA). […] Data are presented as spot forming units (SFU) per plated number of cells.

Row | Sequence | T-cell recognition of individual neoantigen peptide
1 | DTVEYPYTSF | peptide-specific T-cell response was deconvolved
2 | QDVSVQVER | peptide-specific T-cell response was deconvolved
3 | GTKKDVDVLK | recognized by CD8 T-cells
4 | EVADAATLTM | peptide-specific T-cell response was deconvolved
5 | DENITTIQF | peptide-specific T-cell response was deconvolved
